The values that follow come from patent US5686628A, “Proline derivatives” (Zeneca Ltd., priority 1995, dated 1997).

SMILES strings stand for the structures. Read-outs that look alike come from different tables or passages of the source. Where a SMILES comes first, the peptide text is derived from it. [ ]: non-standard residue; d: D form. The star is where a group is joined. ξ: configuration not given here. ξV = CC(C)C(N)C(=O)O; CF3 = FC(F)(F)*; Moc = COC(=O)*

In series [1] the target is T1, human neutrophil elastase (HNE) (Homo sapiens, UniProt P08246).
T1 sequence (P08246 30-267): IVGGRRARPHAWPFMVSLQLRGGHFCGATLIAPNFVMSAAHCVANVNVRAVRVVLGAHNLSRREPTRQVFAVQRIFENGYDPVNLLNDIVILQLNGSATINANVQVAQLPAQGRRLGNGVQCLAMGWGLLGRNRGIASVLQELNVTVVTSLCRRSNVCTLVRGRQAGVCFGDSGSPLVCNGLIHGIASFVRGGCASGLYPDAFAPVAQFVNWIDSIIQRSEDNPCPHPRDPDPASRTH
The experiment in a line: Acute Hemorrhagic Assay (HNE-induced lung hemorrhage in hamsters). The class given is in vivo, Male Syrian hamsters. The settings on record: hamster, 50 μg/animal HNE intratracheal, 4 h, read-out: ED50 (inhibition of HNE-induced hemorrhage).
Method: This assay relies on monitoring only the amount of hemorrhage in the lung following intratracheal administration of human neutrophil elastase (HNE). Hemorrhage is quantified by disrupting erythrocytes recovered in lung lavage fluid and comparing that to dilutions of whole hamster blood. […] Male Syrian hamsters (fasted for 16-18 hours prior to use) are lightly anaesthetised with Brevital sodium (30 mg/kg i.p.). […] Four hours after enzyme administration, the animals are killed with an overdose of pentobarbital sodium, the thorax opened and the lungs and heart removed and the lungs cleared of extraneous material. The excised lungs are lavaged with three changes of 2 ml PBS via a tracheal cannula. The recovered lavages are pooled, the volumes (about 5 mL) are recorded and the lavages stored at 4 ° C. until assayed. For calculation of the amount of blood in each sample, the thawed lavages and a sample of whole hamster blood are sonicated to disrupt erythrocytes and appropriately diluted into individual wells of a 96-well microtiter plate. The optical densities (OD) of the disrupted lavages and blood samples are determined at 540 nm. The (μL blood equivalents) / (mL lavage) are determined by comparing the OD of the test samples with the OD of the standard curve prepared from whole hamster blood. The total μL equivalents of blood recovered is determined by multiplying recovered lavage volume by the (μL blood equivalents) / (mL lavage) for each sample.

For series [2], the target named is T2, human leukocyte elastase (HLE) (Homo sapiens, UniProt P08246).
T2 sequence (P08246 30-267): T1 sequence (P08246 30-267)
Put plainly: Inhibition of human leukocyte elastase (HLE) on low molecular weight peptide substrate methoxy-succinyl-alanyl-alanyl-prolyl-valine-p-nitroanilide. The class given is biochemical. The settings on record: kinetic determination, read-out: Ki (dissociation constant of the complex formed from the interaction of the inhibitor with HLE). The protocol: The potency of the compound of the invention (or a particular form thereof) to act as an inhibitor of human leukocyte elastase (HLE) on the low molecular weight peptide substrate methoxy-succinyl-alanyl-alanyl-prolyl-valine-p-nitroanilide is determined as described in U.S. Pat. No. 4,910,190. The potency of the compound is evaluated by obtaining a kinetic determination of the dissociation constant, Ki, of the complex formed from the interaction of the inhibitor with HLE.

Another series in a line: Hygroscopicity. It is filed as physicochemical.
Series [3] in a line: Solubility in aqueous buffer. It is filed as physicochemical. The settings on record: crystalline hydrated forms.
The nature of a further series: Bioavailability. Conditions: crystalline hydrated forms. The class given is in vivo.

With `COC(=O)N[C@H](C(=O)N1CCC[C@H]1C(=O)NC(C(=O)C(F)(F)F)C(C)C)C(C)C` (stereo partly drawn) [Example 1, (S)-1-[(S)-2-(methoxycarbonylamino)-3-methylbutyryl]-N-[2-methyl-1-(2,2,2-trifluoroacetyl)propyl]pyrrolidine-2-carboxamide] (Moc-Val-Pro-[ξV]-CF3), the ED50 (commonly the dose that gives a 50% effect, or the effect in half of the subjects) in series [1] (oral dosing) was determined as 4.5 mg/kg. Further, in series [2], the Ki – broadly, the dissociation constant of the complex between target and ligand, obtained from inhibition or displacement – was 36 nM.

For the molecule `COC(=O)N[C@H](C(=O)N1CCC[C@H]1C(=O)N[C@H](C(=O)C(F)(F)F)C(C)C)C(C)C` [Example 2, (S)-1-[(S)-2-(methoxycarbonylamino)-3-methylbutyryl]-N-[(S)-2-methyl-1-(2,2,2-trifluoroacetyl)propyl]-pyrrolidine-2-carboxamide] (HELM PEPTIDE1{[COC(=O)[*:2]].V.P.V.[FC(F)(F)[*:1]]}$$$$V2.0), the ED50 stood at 0.6 mg/kg in series [1] (iv, i.v. administration) and 1.9 mg/kg in series [1] (oral dosing). The hygroscopicity entry in “Hygroscopicity” (listed as Form A) was “non-hygroscopic”. In addition, the Ki in series [2] came to 9 nM. For the same molecule, the “solubility in aqueous buffer” value in series [3] is on record as “good solubility in aqueous buffer”. Moreover, the bioavailability result in “Bioavailability” is “good bioavailability”.

As for `COC(=O)N[C@H](C(=O)N1CCC[C@H]1C(=O)N[C@H](C(=O)C(F)(F)F)C(C)C)C(C)C` [Example 8] (HELM PEPTIDE1{[COC(=O)[*:2]].V.P.V.[FC(F)(F)[*:1]]}$$$$V2.0), in “Hygroscopicity” (listed as Form B), the hygroscopicity result was “non-hygroscopic”.

`COC(=O)N[C@H](C(=O)N1CCC[C@H]1C(=O)N[C@H](C(=O)C(F)(F)F)C(C)C)C(C)C` [Example 10] (HELM PEPTIDE1{[COC(=O)[*:2]].V.P.V.[FC(F)(F)[*:1]]}$$$$V2.0): the hygroscopicity result in “Hygroscopicity” (listed as "ketone" form) is “hygroscopic”.
